Test results taken from patent US11642348B2, “Substituted benzene compounds” (Epizyme, Inc., priority 2012, dated 2023).
Like-named read-outs stand apart in the source and are kept apart here.

How the values were obtained:
[1] = target: wild-type EZH2 (PRC2 complex) (Homo sapiens (Human), UniProt Q15910); experiment: PRC2 enzyme assay on peptide substrates (wild-type EZH2)
[2] = system: H3K27me3 in WSU-DLCL2 cells; experiment: WSU-DLCL2 methylation assay (H3K27me3 ELISA); type: cell-based; conditions: Homo sapiens, 96 hours
Description: WSU-DLCL2 suspension cells were purchased from DSMZ (German Collection of Microorganisms and Cell Cultures, Braunschweig, Germany). RPMI/Glutamax Medium, Penicillin-Streptomycin, Heat Inactivated Fetal Bovine Serum, and D-PBS were purchased from Life Technologies, Grand Island, N.Y., USA. Extraction Buffer and Neutralization Buffer (5×) were purchased from Active Motif, Carlsbad, Calif., USA. Rabbit anti-Histone H3 antibody was purchased from Abcam, Cambridge, Mass., USA. Rabbit anti-H3K27me3 and HRP-conjugated anti-rabbit-IgG were purchased from Cell Signaling Technology, Danvers, Mass., USA. TMB “Super Sensitive” substrate was sourced from BioFX Laboratories, Owings Mills, Md., USA. IgG-free Bovine Serum Albumin was purchased from Jackson ImmunoResearch, West Grove, Pa., USA. PBS with Tween (10×PBST) was purchased from KPL, Gaithersburg, Md., USA. Sulfuric Acid was purchased from Ricca Chemical, Arlington, Tex., USA. Immulon ELISA plates were purchased from Thermo, Rochester, N.Y., USA. V-bottom cell culture plates were purchased from Corning Inc., Corning, N.Y., USA. V-bottom polypropylene plates were purchased from Greiner Bio-One, Monroe, N.C., USA.
WSU-DLCL2 cells were seeded in assay medium at a concentration of 50,000 cells per mL to a 96-well V-bottom cell culture plate with 200 μL per well. […] Plates were incubated on a titer-plate shaker at 37° C., 5% CO2 for 96 hours. After four days of incubation, plates were spun at 241×g for five minutes and medium was aspirated gently from each well of cell plate without disturbing cell pellet. Pellet was resuspended in 200 μL DPBS and plates were spun again at 241×g for five minutes. The supernatant was aspirated and cold (4° C.) Extraction buffer (100 μL) was added per well. Plates were incubated at 4° C. on orbital shaker for two hours. […] Supernatant (80 μL per well) was transferred to its respective well in 96 well V-bottom polypropylene plate. Neutralization Buffer 5× (20 μL per well) was added to V-bottom polypropylene plate containing supernatant. V-bottom polypropylene plates containing crude histone preparation (CHP) were incubated on orbital shaker×five minutes. Crude Histone Preparations were added (2 μL per well) to each respective well into duplicate 96 well ELISA plates containing 100 μL Coating Buffer (1×PBS+BSA 0.05% w/v). Plates were sealed and incubated overnight at 4° C. The following day, plates were washed three times with 300 μL per well 1×PBST. […] For H3K27me3 detection, 100 μL of HRP conjugated anti-rabbit IgG antibody diluted to 1:4000 in ELISA diluent was added per well. Plates were incubated at room temperature for 90 minutes. […] TMB substrate 100 μL was added per well. Histone H3 plates were incubated for five minutes at room temperature. H3K27me3 plates were incubated for 10 minutes at room temperature. The reaction was stopped with sulfuric acid 1N (100 μL per well). Absorbance for each plate was read at 450 nm.
Each plate included eight control wells of DMSO only treatment (Minimum Inhibition) as well as eight control wells for maximum inhibition (Background wells).
The average of the ratio values for each control type was calculated and used to determine the percent inhibition for each test well in the plate. […] Percent inhibition was determined and IC50 curves were generated using duplicate wells per concentration of compound.

WSU-DLCL2 cells = experiment: Cell proliferation analysis (WSU-DLCL2, Cell Titer Glo); type: cell-based; conditions: Homo sapiens, 6 days
Description: Cell Proliferation Analysis
WSU-DLCL2 suspension cells were purchased from DSMZ (German Collection of Microorganisms and Cell Cultures, Braunschweig, Germany). RPMI/Glutamax Medium, Penicillin-Streptomycin, Heat Inactivated Fetal Bovine Serum were purchased from Life Technologies, Grand Island, N.Y., USA. V-bottom polypropylene 384-well plates were purchased from Greiner Bio-One, Monroe, N.C., USA. Cell culture 384-well white opaque plates were purchased from Perkin Elmer, Waltham, Mass., USA. Cell-Titer Glo® was purchased from Promega Corporation, Madison, Wis., USA. SpectraMax M5 plate reader was purchased from Molecular Devices LLC, Sunnyvale, Calif., USA.
A compound source plate was prepared by performing triplicate nine-point 3-fold serial dilutions in DMSO, beginning at 10 mM (final top concentration of compound in the assay was 20 μM and the DMSO was 0.2%). A 100 nL aliquot from the compound stock plate was added to its respective well in the cell plate. […] After addition of compounds, assay plates were incubated for 6 days at 37° C., 5% CO2, relative humidity >90% for 6 days. Cell viability was measured by quantization of ATP present in the cell cultures, adding 35 μl of Cell Titer Glo® reagent to the cell plates. Luminescence was read in the SpectraMax M5. The concentration inhibiting cell viability by 50% was determined using a 4-parametric fit of the normalized dose response curves.

[3] = WSUDLCL2, Table 3A, read-out: H3K27Me3 ELISA IC50
[4] = WSUDLCL2, Table 3B, read-out: ELISA H3K27me3 IC50
[5] = WSUDLCL2, Table 3B, read-out: WSU proliferation IC50

wild-type EZH2 (PRC2 complex), sequence (Q15910 other isoform, or with tags, fused parts or gaps): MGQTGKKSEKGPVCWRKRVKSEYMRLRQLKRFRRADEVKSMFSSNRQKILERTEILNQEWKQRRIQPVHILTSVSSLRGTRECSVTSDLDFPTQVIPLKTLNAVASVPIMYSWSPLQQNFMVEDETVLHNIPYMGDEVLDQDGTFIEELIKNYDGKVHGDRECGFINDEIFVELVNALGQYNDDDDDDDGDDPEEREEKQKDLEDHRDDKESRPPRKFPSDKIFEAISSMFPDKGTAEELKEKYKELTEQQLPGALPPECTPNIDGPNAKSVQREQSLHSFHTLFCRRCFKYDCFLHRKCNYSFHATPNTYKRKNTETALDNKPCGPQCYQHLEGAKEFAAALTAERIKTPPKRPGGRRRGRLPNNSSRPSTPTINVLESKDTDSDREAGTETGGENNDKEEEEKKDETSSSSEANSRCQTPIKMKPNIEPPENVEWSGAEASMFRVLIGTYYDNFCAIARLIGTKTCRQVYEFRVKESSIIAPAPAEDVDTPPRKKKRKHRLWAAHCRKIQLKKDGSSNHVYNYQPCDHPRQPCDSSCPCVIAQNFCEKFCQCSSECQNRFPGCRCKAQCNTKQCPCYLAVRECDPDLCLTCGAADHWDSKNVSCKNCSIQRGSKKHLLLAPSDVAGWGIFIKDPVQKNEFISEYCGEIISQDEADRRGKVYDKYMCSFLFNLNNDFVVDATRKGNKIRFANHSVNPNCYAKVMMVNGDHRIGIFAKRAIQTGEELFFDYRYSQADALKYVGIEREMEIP
wild-type EZH2 (PRC2 complex), sequence (O75530 whole entry partner): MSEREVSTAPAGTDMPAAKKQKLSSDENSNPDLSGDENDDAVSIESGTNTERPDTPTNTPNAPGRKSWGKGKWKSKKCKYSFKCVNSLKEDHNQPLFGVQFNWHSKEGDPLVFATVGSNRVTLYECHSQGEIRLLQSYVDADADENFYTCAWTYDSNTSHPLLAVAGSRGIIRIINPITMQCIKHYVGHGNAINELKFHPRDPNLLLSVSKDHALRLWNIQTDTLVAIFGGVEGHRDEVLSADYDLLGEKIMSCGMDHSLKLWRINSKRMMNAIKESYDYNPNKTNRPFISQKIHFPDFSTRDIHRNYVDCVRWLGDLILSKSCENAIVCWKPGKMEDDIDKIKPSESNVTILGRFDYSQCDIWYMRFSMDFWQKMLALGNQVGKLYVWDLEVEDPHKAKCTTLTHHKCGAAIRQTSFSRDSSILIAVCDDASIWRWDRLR
wild-type EZH2 (PRC2 complex), sequence (Q15022 whole entry partner): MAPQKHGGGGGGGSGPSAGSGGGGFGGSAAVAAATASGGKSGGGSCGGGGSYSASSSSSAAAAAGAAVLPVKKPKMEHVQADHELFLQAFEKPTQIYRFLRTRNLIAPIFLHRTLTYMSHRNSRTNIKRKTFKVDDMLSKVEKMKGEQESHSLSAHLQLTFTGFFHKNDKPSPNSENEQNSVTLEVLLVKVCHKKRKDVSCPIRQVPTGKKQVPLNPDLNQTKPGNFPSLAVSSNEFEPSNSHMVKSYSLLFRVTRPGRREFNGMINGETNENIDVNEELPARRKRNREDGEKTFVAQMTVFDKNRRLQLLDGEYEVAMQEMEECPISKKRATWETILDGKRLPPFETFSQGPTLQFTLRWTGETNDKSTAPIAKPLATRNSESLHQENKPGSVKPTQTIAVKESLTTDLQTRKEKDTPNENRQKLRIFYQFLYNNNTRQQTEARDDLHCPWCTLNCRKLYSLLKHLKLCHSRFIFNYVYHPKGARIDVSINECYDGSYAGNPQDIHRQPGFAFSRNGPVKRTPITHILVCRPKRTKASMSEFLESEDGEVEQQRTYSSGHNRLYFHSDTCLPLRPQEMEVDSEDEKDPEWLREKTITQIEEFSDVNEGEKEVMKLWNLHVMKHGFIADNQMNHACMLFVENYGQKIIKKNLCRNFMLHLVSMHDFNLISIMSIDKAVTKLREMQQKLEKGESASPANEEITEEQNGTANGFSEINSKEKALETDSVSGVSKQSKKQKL
wild-type EZH2 (PRC2 complex), sequence (Q09028 whole entry partner): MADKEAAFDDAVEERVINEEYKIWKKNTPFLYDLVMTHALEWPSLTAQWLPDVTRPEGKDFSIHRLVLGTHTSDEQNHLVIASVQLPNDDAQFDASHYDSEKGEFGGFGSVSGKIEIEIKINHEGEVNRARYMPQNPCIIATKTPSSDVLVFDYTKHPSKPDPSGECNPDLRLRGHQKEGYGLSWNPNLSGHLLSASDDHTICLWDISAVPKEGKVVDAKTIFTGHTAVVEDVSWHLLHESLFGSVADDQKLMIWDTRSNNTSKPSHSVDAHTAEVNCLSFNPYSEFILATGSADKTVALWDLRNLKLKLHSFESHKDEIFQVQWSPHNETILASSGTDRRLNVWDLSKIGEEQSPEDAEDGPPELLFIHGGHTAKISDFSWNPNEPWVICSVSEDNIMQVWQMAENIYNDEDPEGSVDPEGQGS

`CCN(c1cc(-c2ccc(OCCOC)nc2)cc(C(=O)NCc2c(C)cc(C)[nH]c2=O)c1C)[C@H]1CC[C@H](N(C)C)CC1` [Compound 5, N-((4,6-dimethyl-2-oxo-1,2-dihydropyridin-3-yl)methyl)-3-(((trans)-4-(dimethylamino)cyclohexyl)(ethyl)amino)-5-(6-(2-methoxyethoxy)pyridin-3-yl)-2-methylbenzamide] was tested, and the IC50 [1] was 0.0131 µM.

Work on `CCN(c1cc(-c2ccc(OCCOCCOC)cc2)cc(C(=O)NCc2c(C)cc(C)[nH]c2=O)c1C)[C@H]1CC[C@H](N(C)C)CC1` [Compound 6, N-((4,6-dimethyl-2-oxo-1,2-dihydropyridin-3-yl)methyl)-5-(((trans)-4-(dimethylamino)cyclohexyl)(ethyl)amino)-4′-(2-(2-methoxyethoxy)ethoxy)-4-methyl-[1,1′-biphenyl]-3-carboxamide] yielded an IC50 [2, 3] of 0.0575 µM and an IC50 [1] of 0.0154 µM.

`CCN(c1cc(-c2ccc(OCCOC)cc2)cc(C(=O)NCc2c(OC)cc(C)[nH]c2=O)c1C)[C@H]1CC[C@H](N(C)C)CC1` [Compound 6b, 5-(((trans)-4-(dimethylamino)cyclohexyl)(ethyl)amino)-N-((4-methoxy-6-methyl-2-oxo-1,2-dihydropyridin-3-yl)methyl)-4′-(2-methoxyethoxy)-4-methyl-[1,1′-biphenyl]-3-carboxamide] showed an IC50 [2, 3] of 0.0339 µM and an IC50 [1] of less than 0.005 µM.

`CCN(c1cc(OC)cc(C(=O)NCc2c(C)cc(C)[nH]c2=O)c1C)[C@H]1CC[C@H](N(C)CCOC)CC1` [Compound 11, N-((4,6-dimethyl-2-oxo-1,2-dihydropyridin-3-yl)methyl)-3-(ethyl((trans)-4-((2-methoxyethyl)(methyl)amino)cyclohexyl)amino)-5-methoxy-2-methylbenzamide] showed an IC50 [2, 3] of 0.673 µM and an IC50 [1] of 0.00627 µM.

`CCN(c1cc(OCCOC)cc(C(=O)NCc2c(C)cc(C)[nH]c2=O)c1C)[C@H]1CC[C@H](N(C)CCOC)CC1` [Compound 12, N-((4,6-dimethyl-2-oxo-1,2-dihydropyridin-3-yl)methyl)-3-(ethyl((trans)-4-((2-methoxyethyl)(methyl)amino)cyclohexyl)amino)-5-(2-methoxyethoxy)-2-methylbenzamide] gave an IC50 [2, 3] of 0.308 µM and an IC50 [1] of 0.029 µM.

Work on `CCN(c1cc(OCCN2CCOCC2)cc(C(=O)NCc2c(C)cc(C)[nH]c2=O)c1C)[C@H]1CC[C@H](N(C)CCOC)CC1` [Compound 13, N-((4,6-dimethyl-2-oxo-1,2-dihydropyridin-3-yl)methyl)-3-(ethyl((trans)-4-((2-methoxyethyl)(methyl)amino)cyclohexyl)amino)-2-methyl-5-(2-morpholinoethoxy)benzamide] yielded an IC50 [2, 3] greater than 50 µM.

`CCN(c1cc(OCCCN2CCOCC2)cc(C(=O)NCc2c(C)cc(C)[nH]c2=O)c1C)[C@H]1CC[C@H](N(C)CCOC)CC1` [Compound 14, N-((4,6-dimethyl-2-oxo-1,2-dihydropyridin-3-yl)methyl)-3-(ethyl((trans)-4-((2-methoxyethyl)(methyl)amino)cyclohexyl)amino)-2-methyl-5-(3-morpholinopropoxy)benzamide] showed an IC50 [2, 3] of 17.1 µM.

For `CCN(c1cc(-c2cnc(C)cn2)cc(C(=O)NCc2c(C)cc(C)[nH]c2=O)c1C)[C@H]1CC[C@H](N(C)CCOC)CC1` [Compound 18], the IC50 [2, 3] was 0.553 µM and the IC50 [1] was 0.00859 µM.

With `CCN(c1cc(-c2cnc(C)nc2)cc(C(=O)NCc2c(C)cc(C)[nH]c2=O)c1C)[C@H]1CC[C@H](N(C)CCOC)CC1` [Compound 19] the IC50 [1] was 0.00981 µM.

Compound `CCN(c1cc(-c2cnc(OC)nc2)cc(C(=O)NCc2c(C)cc(C)[nH]c2=O)c1C)[C@H]1CC[C@H](N(C)CCOC)CC1` [Compound 20] has an IC50 [1] of less than 0.005 µM.

In the case of `CCN(c1cc(-c2cnccn2)cc(C(=O)NCc2c(C)cc(C)[nH]c2=O)c1C)[C@H]1CC[C@H](N(C)CCOC)CC1` [Compound 22], the IC50 [2, 3] is reported as 1.04 µM and the IC50 [1] is reported as 0.0283 µM.

`CCN(c1cc(-c2cnn(C)c2)cc(C(=O)NCc2c(C)cc(C)[nH]c2=O)c1C)[C@H]1CC[C@H](N(C)CCOC)CC1` [Compound 23] showed an IC50 [2, 3] of 0.401 µM and an IC50 [1] of less than 0.005 µM.

Work on `CCN(c1cc(-c2ccc(CN3CCOCC3)cc2)cc(C(=O)NCc2c(C)cc(C)[nH]c2=O)c1C)[C@H]1CC[C@H](N(C)CCOC)CC1` [Compound 26] yielded an IC50 [2, 3] of 0.087 µM and an IC50 (WSU-DLCL2 cells; WSUDLCL2, Table 3A, read-out: WSU Prolif. IC50) of 0.138 µM.

For `CCN(c1cc(C#CC2CCN(C)CC2)cc(C(=O)NCc2c(C)cc(C)[nH]c2=O)c1C)C1CCOCC1` [Compound 105, N-((4,6-dimethyl-2-oxo-1,2-dihydropyridin-3-yl)methyl)-3-(ethyl(tetrahydro-2H-pyran-4-yl)amino)-2-methyl-5-((1-methylpiperidin-4-yl)ethynyl)benzamide], the IC50 [2, 3] was 0.15 µM.

Compound `CCN(c1cc(C#CCN2CCOCC2)cc(C(=O)NCc2c(C)cc(C)[nH]c2=O)c1C)C1CCC(N(C)C)CC1` (stereo not shown) [Compound 111] has an IC50 [2, 4] of 0.014 µM and an IC50 (WSU-DLCL2 cells; [5]) of 0.201 µM.

`CCN(c1cc(C#CCN2CCOCC2)cc(C(=O)NCc2c(C)cc(C)[nH]c2=O)c1C)[C@H]1CC[C@H](N(C)C)CC1` [Compound 111] showed an IC50 [1] of less than 0.005 µM.

For `CCN(c1cc(C#CCN2CCCN(C)CC2)cc(C(=O)NCc2c(C)cc(C)[nH]c2=O)c1C)C1CCC(N(C)C)CC1` (stereo not shown) [Compound 112], the IC50 [2, 4] was 0.179 µM and the IC50 (WSU-DLCL2 cells; [5]) was 0.798 µM.

`CCN(c1cc(-c2ccc(N3CCN(C)CC3)nc2)cc(C(=O)NCc2c(C)cc(C)[nH]c2=O)c1C)C1C[C@@H](C)N[C@H](C)C1` (stereo partly shown) [Compound 124] showed an IC50 [2, 4] of 0.166 µM and an IC50 (WSU-DLCL2 cells; [5]) of 0.158 µM.

`CCN(c1cc(-c2ccc(N3CCN(C)CC3)nc2)cc(C(=O)NCc2c(C)cc(C)[nH]c2=O)c1C)C1CCN(C)CC1` [Compound 125] was tested, and the IC50 [2, 4] was 0.291 µM and the IC50 (WSU-DLCL2 cells; [5]) was 0.155 µM.

`CCN(c1cc(-c2ccc(COC)nc2)cc(C(=O)NCc2c(C(C)C)cc(C)[nH]c2=O)c1C)C1CCOCC1` [Compound 129] gave an IC50 [2, 4] of 0.354 µM and an IC50 (WSU-DLCL2 cells; [5]) of 0.254 µM.

Compound `CCN(c1cc(-c2ccc(OC)nc2)cc(C(=O)NCc2c(C)cc(C)[nH]c2=O)c1C)C1CCOCC1` [Compound 130] has an IC50 [2, 4] of 0.217 µM and an IC50 (WSU-DLCL2 cells; [5]) of 0.218 µM.

With `CCN(c1cc(-c2ccc(OC3CCN(C)CC3)nc2)cc(C(=O)NCc2c(C)cc(C)[nH]c2=O)c1C)C1CCOCC1` [Compound 133] the IC50 (WSU-DLCL2 cells; [5]) was 0.503 µM.

Work on `CCN(c1cc(-c2ccc(CN3CCCN(C)CC3)nc2)cc(C(=O)NCc2c(C)cc(C)[nH]c2=O)c1C)C1CCOCC1` [Compound 135] yielded an IC50 [2, 4] of 0.192 µM and an IC50 (WSU-DLCL2 cells; [5]) of 0.176 µM.

For `CCN(c1cc(-c2ccc(CN3CCCN(C)CC3)nc2)cc(C(=O)NCc2c(C(C)C)cc(C)[nH]c2=O)c1C)C1CCOCC1` [Compound 136], the IC50 [2, 4] was 0.259 µM and the IC50 (WSU-DLCL2 cells; [5]) was 0.566 µM.

For `CCN(c1cc(-c2ccc(N3CCCN(C)CC3)nc2)cc(C(=O)NCc2c(C)cc(C)[nH]c2=O)c1C)C1CCOCC1` [Compound 137], the IC50 [2, 4] was 0.056 µM and the IC50 (WSU-DLCL2 cells; [5]) was 0.505 µM.

`CCN(c1cc(-c2ccc(CN3CCCC3)nc2)cc(C(=O)NCc2c(C)cc(C)[nH]c2=O)c1C)C1CCOCC1` [Compound 138] was tested, and the IC50 [2, 4] was 0.288 µM and the IC50 (WSU-DLCL2 cells; [5]) was 0.178 µM.

For `CCN(c1cc(-c2ccc(CN3CCCCC3)nc2)cc(C(=O)NCc2c(C)cc(C)[nH]c2=O)c1C)C1CCOCC1` [Compound 139], the IC50 [2, 4] was 0.0958 µM and the IC50 (WSU-DLCL2 cells; [5]) was 0.0249 µM.

With `CCN(c1cc(-c2ccc(CN3CCC(O)CC3)nc2)cc(C(=O)NCc2c(C(C)C)cc(C)[nH]c2=O)c1C)C1CCOCC1` [Compound 140] the IC50 (WSU-DLCL2 cells; [5]) was 0.716 µM.

In the case of `CCN(c1cc(-c2ccc(CN3CCC[C@H](O)C3)nc2)cc(C(=O)NCc2c(C(C)C)cc(C)[nH]c2=O)c1C)C1CCOCC1` [Compound 141], the IC50 [2, 4] is reported as 0.349 µM and the IC50 (WSU-DLCL2 cells; [5]) is reported as 0.123 µM.

With `CCN(c1cc(-c2ccc(CN3CCOCC3)nc2)cc(C(=O)NCc2c(C(F)(F)F)cc(C)[nH]c2=O)c1C)C1CCOCC1` [Compound 142] the IC50 [2, 4] was 0.699 µM and the IC50 (WSU-DLCL2 cells; [5]) was 2 µM.

For `CCN(c1cc(-c2ccc(N3CCC(O)CC3)nc2)cc(C(=O)NCc2c(C)cc(C)[nH]c2=O)c1C)[C@H]1CC[C@H](N(C)C)CC1` [Compound 143], the IC50 [2, 4] was 0.018 µM and the IC50 (WSU-DLCL2 cells; [5]) was 0.276 µM.

With `CCN(c1cc(-c2ccc(N3CC(O)C3)nc2)cc(C(=O)NCc2c(C)cc(C)[nH]c2=O)c1C)[C@H]1CC[C@H](N(C)C)CC1` [Compound 144] the IC50 [2, 4] was 0.092 µM and the IC50 (WSU-DLCL2 cells; [5]) was 1.54 µM.

`CCN(c1cc(-c2ccc(CN3CCOCC3)nc2)cc(C(=O)NCc2c(C)cc(C)[nH]c2=O)c1C)[C@H]1CC[C@H](N(C)C)CC1` [Compound 145] showed an IC50 [2, 4] of 0.0842 µM and an IC50 (WSU-DLCL2 cells; [5]) of 0.185 µM.

Compound `CCN(c1cc(-c2ccc(CN3CCC(O)CC3)c(F)c2)cc(C(=O)NCc2c(C)cc(C)[nH]c2=O)c1C)C1CCOCC1` [Compound 153] has an IC50 (WSU-DLCL2 cells; [5]) of 0.476 µM.

With `CCN(c1cc(-c2ccc(CN3CC(O)C3)c(F)c2)cc(C(=O)NCc2c(C)cc(C)[nH]c2=O)c1C)C1CCOCC1` [Compound 154] the IC50 [2, 4] was 0.529 µM and the IC50 (WSU-DLCL2 cells; [5]) was 0.394 µM.

`CCN(c1cc(C#CC2CCN(C3CC3)CC2)cc(C(=O)NCc2c(C)cc(C)[nH]c2=O)c1C)C1CCOCC1` [Compound 157] was tested, and the IC50 [2, 3] was 0.14 µM and the IC50 [1] was less than 0.005 µM.

In the case of `CCN(c1cc(C#CC2CCN(C3CCC3)CC2)cc(C(=O)NCc2c(C)cc(C)[nH]c2=O)c1C)C1CCOCC1` [Compound 158], the IC50 [2, 3] is reported as 0.215 µM and the IC50 [1] is reported as less than 0.005 µM.

`CCN(c1cc(C#CC2CCN(C3COC3)CC2)cc(C(=O)NCc2c(C)cc(C)[nH]c2=O)c1C)C1CCOCC1` [Compound 159] gave an IC50 [2, 3] of 0.262 µM and an IC50 [1] of less than 0.005 µM.

In the case of `CCN(c1cc(C#CC2CCN(C(C)=O)CC2)cc(C(=O)NCc2c(C)cc(C)[nH]c2=O)c1C)[C@H]1CC[C@H](N(C)C)CC1` [Compound 160], the IC50 [2, 3] is reported as 0.094 µM and the IC50 [1] is reported as 0.014 µM.

`CCN(c1cc(C#CC2CCN(CC(F)(F)F)CC2)cc(C(=O)NCc2c(C)cc(C)[nH]c2=O)c1C)[C@H]1CC[C@H](N(C)C)CC1` [Compound 161] was tested, and the IC50 [2, 3] was 0.034 µM and the IC50 [1] was less than 0.005 µM.

Compound `CCN(c1cc(C#CC2CCN(C3CN(C)C3)CC2)cc(C(=O)NCc2c(C)cc(C)[nH]c2=O)c1C)C1CCOCC1` [Compound 162] has an IC50 [1] of 0.012 µM.

For `CCN(c1cc(C#CC2CCN(C)CC2)cc(C(=O)NCc2c(OC)cc(C)[nH]c2=O)c1C)C1CCOCC1` [Compound 163], the IC50 [2, 3] was 0.043 µM and the IC50 [1] was less than 0.005 µM.
